Values of other authors as cited in patent US20190298799A1, “CONTROLLED-RELEASE APOPTOSIS MODULATING COMPOSITIONS AND METHODS FOR THE TREATMENT OF OTIC DISORDERS” (Otonomy, Inc., priority 2008, published 2019).

Legend:
[1] = test system: neurons and otic hair cells
[2] = test system: cochlear culture; settings: culture first treated with the inhibitor, then neomycin and/or cisplatin

| Compound | protection from aminoglycoside ototoxicity [1] | apoptosis in cochlear culture [2] |
| --- | --- | --- |
| CC(=O)N[C@@H](CC(C)C)C(=O)N[C@@H](CC(C)C)C(=O)N[C@H](C=O)CCCNC(=N)N [Leupeptine, leupeptine] | protects neurons and otic hair cells from aminoglycoside ototoxicity |  |
| C[S+]([O-])c1ccc(-c2nc(-c3ccc(F)cc3)c(-c3ccncc3)[nH]2)cc1 (centres unmarked) [SB-203580, 4-(4-Fluorophenyl)-2-(4-methylsulfinylphenyl)-5-(4-pyridyl) 1H-imidazole] |  | apoptosis is decreased |
